Source: the supplement of paper PMC10307832

How the values were obtained:
Assay in all cases: relative viability (nuclei count vs DMSO), 5 days (fraction); higher = more cells survive
Apatinib + Navitoclax = compound: N#CC1(c2ccc(NC(=O)c3cccnc3NCc3ccncc3)cc2)CCCC1 [Apatinib] + CC1(C)CCC(c2ccc(Cl)cc2)=C(CN2CCN(c3ccc(C(=O)NS(=O)(=O)c4ccc(N[C@H](CCN5CCOCC5)CSc5ccccc5)c(S(=O)(=O)C(F)(F)F)c4)cc3)CC2)C1 [Navitoclax] (partner 0.5 µM)
Outline: (§1)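 Lung cancer cell lines were pin-tool dosed in 1536-well plates on the day after seeding, with either a lone drug or a fixed anchor-drug dose plus five library-drug doses (not always all listed) in √10 steps. Nuclei were counted on 4× images after 5 days. Relative viability is the ratio of treated-well to vehicle-well nuclei counts, with each value a median of duplicate plates.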

Apatinib + Trametinib = compound: N#CC1(c2ccc(NC(=O)c3cccnc3NCc3ccncc3)cc2)CCCC1 [Apatinib] + CC(=O)Nc1cccc(-n2c(=O)n(C3CC3)c(=O)c3c(Nc4ccc(I)cc4F)n(C)c(=O)c(C)c32)c1 [Trametinib] (partner 0.02 µM)
Outline: as §1

Metformin + Foretinib = compound: CN(C)C(=N)NC(=N)N [Metformin] + COc1cc2c(Oc3ccc(NC(=O)C4(C(=O)Nc5ccc(F)cc5)CC4)cc3F)ccnc2cc1OCCCN1CCOCC1 [Foretinib] (partner 0.25 µM)
Outline: as §1

Metformin + Vorinostat = compound: CN(C)C(=N)NC(=N)N [Metformin] + O=C(CCCCCCC(=O)Nc1ccccc1)NO [Vorinostat] (partner 1 µM)
Outline: as §1

Row | Cell Line | relative viability (Apatinib + Navitoclax; first compound 0.08 µM) | relative viability (Apatinib + Navitoclax; first compound 0.253 µM) | relative viability (Apatinib + Navitoclax; first compound 0.8 µM) | relative viability (Apatinib + Navitoclax; first compound 2.53 µM) | relative viability (Apatinib + Navitoclax; first compound 8 µM) | relative viability (Apatinib + Trametinib; first compound 0.08 µM) | relative viability (Apatinib + Trametinib; first compound 0.253 µM) | relative viability (Apatinib + Trametinib; first compound 0.8 µM) | relative viability (Apatinib + Trametinib; first compound 2.53 µM) | relative viability (Apatinib + Trametinib; first compound 8 µM) | relative viability (Metformin + Foretinib; first compound 10 µM) | relative viability (Metformin + Foretinib; first compound 31.62 µM) | relative viability (Metformin + Foretinib; first compound 100 µM) | relative viability (Metformin + Foretinib; first compound 316.23 µM) | relative viability (Metformin + Foretinib; first compound 1000 µM) | relative viability (Metformin + Vorinostat; first compound 10 µM) | relative viability (Metformin + Vorinostat; first compound 31.62 µM) | relative viability (Metformin + Vorinostat; first compound 100 µM) | relative viability (Metformin + Vorinostat; first compound 316.23 µM) | relative viability (Metformin + Vorinostat; first compound 1000 µM)
1 | NCI-H23 | 1.01 | 0.931 | 0.742 | 0.725 | 0.794 | 0.477 | 0.393 | 0.427 | 0.426 | 0.31 | 0.925 | 1.1 | 1.01 | 0.953 | 1.08 | 0.618 | 0.574 | 0.653 | 0.561 | 0.848
2 | NCI-H596 | 1.03 | 1.11 | 0.927 | 0.945 | 0.857 | 0.89 | 0.831 | 0.803 | 0.696 | 0.722 | 0.832 | 0.855 | 0.85 | 0.861 | 0.89 | 0.691 | 0.854 | 0.674 | 0.596 | 0.784
3 | NCI-H1734 | 0.852 | 0.81 | 0.861 | 0.708 | 0.685 | 0.689 | 0.712 | 0.682 | 0.664 | 0.618 | 0.844 | 0.896 | 0.95 | 0.798 | 0.935 | 0.753 | 0.907 | 0.81 | 0.78 | 0.914
4 | NCI-H2405 | 1.03 | 1.07 | 1.01 | 0.832 | 0.803 | 0.594 | 0.625 | 0.599 | 0.527 | 0.44 | 0.936 | 1.06 | 1.11 | 1.01 | 1.09 | – | 0.991 | 1.03 | 1.02 | 0.587
5 | NCI-H727 | 0.465 | 0.552 | 0.384 | 0.425 | 0.531 | 0.386 | – | 0.386 | 0.416 | 0.342 | 0.971 | 0.769 | 0.959 | 0.914 | 0.927 | 1.1 | 1.16 | 1.13 | – | 1.13
6 | NCI-H2009 | 1.22 | 1.23 | 1.12 | 0.913 | 0.826 | 0.341 | 0.285 | 0.31 | 0.25 | 0.229 | 1.21 | 1.31 | 1.31 | 1.13 | 1.04 | 0.715 | 0.706 | 0.857 | 0.83 | 0.75
7 | NCI-H1666 | 1.02 | 0.963 | 1.07 | 0.815 | 1.04 | 0.843 | 0.942 | 0.783 | 0.81 | 0.681 | 1.03 | 1.03 | 1.08 | 1.03 | 1.09 | 0.979 | 0.946 | 1.01 | 1.06 | 1.1
8 | UMC-11 | 0.343 | 0.335 | 0.319 | 0.247 | 0.266 | 0.816 | 0.686 | 0.631 | 0.668 | 0.647 | 1.14 | 1.09 | 1.05 | 1.1 | 1.07 | 0.471 | 0.452 | 0.483 | 0.377 | 0.406
